Values joined by “and” are separate entries in the source; they are usually repeats but may differ in a detail not shown here. Identical values can stand only once.
Columns and labels:
[1] = system: cell line 25H9 (CHO cells that produce IL-1R-II protein); assay: Example 2: optimization of temperature and decitabine concentration, IL-1R-II production; format: cell-based, Chinese hamster
Description: (§1) About 2×10^6 cells of cell line 25H9 were inoculated into 30 milliliters of serum-free medium and incubated at the temperatures indicated in Table 1 in vented shake flasks. At the times indicated in Table 1, samples were taken from each flask to determine IL-1R-II titer, cell number, and cell viability. IL-1R-II protein titer was determined by ELISA assay. Cell number was determined by counting cells in a hemocytometer. Cell viability was determined by trypan blue staining and counting stained cells in a hemocytometer. Cumulative viable cell density (CVCD) is the area under the curve of a plot of the viable cell density versus time (in units of cells/ml/day). Productivity (pg of IL-1R-II/cell/day) was determined by dividing the protein titer on a particular day by the CVCD on the same day. Cells were fed with amino acids on days 2 and 5, and dextrose was added periodically in order to maintain levels above 2.0 g/L. All samples were done in duplicate, and the data shown is an average value.
To determine an optimum temperature and decitabine concentration, three temperatures (30° C., 31° C., and 32° C.) and three decitabine concentrations (10 μM, 15 μM, and 20 μM) were tested. A 31° C. culture containing 0.5 mM sodium butyrate was grown as a control. […] See e.g. International Application Nos. WO 89/06686 and WO 87/05626. The experiment was performed as in Example 1 except that the inducer concentrations, temperatures, and days at which data was collected are as indicated in Table 2 and FIG. 1.

[2] = system: cell line 25H9 (CHO cells); assay: Example 3: cell number (Guava PCA Cytometer); format: cell-based, Chinese hamster; conditions: 31° C., 10 μM
Description: as §1
The following experiment compares the effects of 5-bromo-2′-deoxycytidine 5′-monophosphate and 5-aza-2′-deoxycytidine on induction of protein production. The experiment was done as described in Example 1 with the following exceptions. All cultures were incubated at 31° C., and cell number and viability were determined using a Guava PCA Cytometer (available from Guava Technologies, Hayward, Calif., USA). Samples were done in triplicate.

[3] = 30° C., 10 μM decitabine, day 3
[4] = 30° C., 10 μM decitabine, day 6
[5] = 30° C., 10 μM decitabine, day 8
[6] = 30° C., 15 μM decitabine, day 3
[7] = 30° C., 15 μM decitabine, day 6
[8] = 30° C., 20 μM decitabine, day 3
[9] = 30° C., 20 μM decitabine, day 6
[10] = 30° C., 20 μM decitabine, day 8
[11] = 31° C., 10 μM decitabine, day 3
[12] = 31° C., 10 μM decitabine, day 6
[13] = 31° C., 10 μM decitabine, day 8
[14] = 31° C., 15 μM decitabine, day 3
[15] = 31° C., 15 μM decitabine, day 6
[16] = 31° C., 15 μM decitabine, day 8
[17] = 31° C., 20 μM decitabine, day 3
[18] = 31° C., 20 μM decitabine, day 6
[19] = 31° C., 20 μM decitabine, day 8
[20] = 32° C., 10 μM decitabine, day 3
[21] = 32° C., 10 μM decitabine, day 6
[22] = 32° C., 10 μM decitabine, day 8
[23] = 32° C., 15 μM decitabine, day 3
[24] = 32° C., 15 μM decitabine, day 6
[25] = 32° C., 20 μM decitabine, day 3
[26] = 32° C., 20 μM decitabine, day 6
[27] = 32° C., 20 μM decitabine, day 8

For Nc1ncn([C@H]2C[C@H](O)[C@@H](CO)O2)c(=O)n1 [decitabine, 5-aza-2′-deoxycytidine], the “IL-1R-II produced at 31° C. versus 30° C. or 32° C. (FIG. 1)” value ([1]; 10 μM decitabine, 8 days) was “more IL-1R-II”, the “IL-1R-II titer in 20 μM versus 10 μM or 15 μM decitabine” value ([1]; 30° C.) was “higher titer of IL-1R-II” and the “IL1R-II Titer” value ([1]; 30° C., 10 μM decitabine, day 0) was 0.0 µg/mL. The “IL1R-II Titer” value [1, 3] was 68.2 µg/mL, the Productivity [1, 3] was 9.2 pg IL-1R-II/cell/day and the “IL1R-II Titer” value [1, 4] was 156.5 µg/mL. The Productivity [1, 4] was 10.9 pg IL-1R-II/cell/day, the “IL1R-II Titer” value [1, 5] was 260.5 µg/mL and the Productivity [1, 5] was 14.4 pg IL-1R-II/cell/day. The “IL1R-II Titer” value ([1]; 30° C., 15 μM decitabine, day 0) was 0.0 µg/mL, the “IL1R-II Titer” value [1, 6] was 77.2 µg/mL and the Productivity [1, 6] was 11.3 pg IL-1R-II/cell/day. For the same compound, the “IL1R-II Titer” value [1, 7] was 173.0 µg/mL, the Productivity [1, 7] was 12.4 pg IL-1R-II/cell/day and the “IL1R-II Titer” value ([1]; 30° C., 15 μM decitabine, day 8) was 283.0 µg/mL. For the same compound, the “IL1R-II Titer” value ([1]; 30° C., 20 μM decitabine, day 0) was 0.0 µg/mL, the “IL1R-II Titer” value [1, 8] was 83.6 µg/mL and the Productivity [1, 8] was 10.6 pg IL-1R-II/cell/day. The “IL1R-II Titer” value [1, 9] was 219.0 µg/mL, the Productivity [1, 9] was 13.4 pg IL-1R-II/cell/day and the “IL1R-II Titer” value [1, 10] was 346.0 µg/mL. The Productivity [1, 10] was 16.9 pg IL-1R-II/cell/day, the “IL-1R-II titer versus culture containing 0.5 mM sodium butyrate” value ([1]; 31° C., 10 μM decitabine, 8 days) was “higher titer” and the “IL1R-II Titer” value ([1]; 31° C., 10 μM decitabine, day 0) was 0.0 µg/mL. The “IL1R-II Titer” value [1, 11] was 164.0 µg/mL, the Productivity [1, 11] was 18.8 pg IL-1R-II/cell/day and the “IL1R-II Titer” value [1, 12] was 448.5 µg/mL. The Productivity [1, 12] was 21.3 pg IL-1R-II/cell/day, the “IL1R-II Titer” value [1, 13] was 1087 µg/mL and 1087.0 µg/mL and the Productivity [1, 13] was 38.1 pg IL-1R-II/cell/day. The “IL1R-II Titer” value ([1]; 31° C., 15 μM decitabine, day 0) was 0.0 µg/mL, the “IL1R-II Titer” value [1, 14] was 174.0 µg/mL and the Productivity [1, 14] was 22.0 pg IL-1R-II/cell/day. The “IL1R-II Titer” value [1, 15] was 440.0 µg/mL, the Productivity [1, 15] was 22.9 pg IL-1R-II/cell/day and the “IL1R-II Titer” value [1, 16] was 718.0 µg/mL. For the same compound, the Productivity [1, 16] was 27.8 pg IL-1R-II/cell/day, the “IL1R-II Titer” value ([1]; 31° C., 20 μM decitabine, day 0) was 0.0 µg/mL and the “IL1R-II Titer” value [1, 17] was 162.0 µg/mL. The Productivity [1, 17] was 17.6 pg IL-1R-II/cell/day, the “IL1R-II Titer” value [1, 18] was 426.0 µg/mL and the Productivity [1, 18] was 19.6 pg IL-1R-II/cell/day. The “IL1R-II Titer” value [1, 19] was 774.5 µg/mL, the Productivity [1, 19] was 27.1 pg IL-1R-II/cell/day and the “productivity on a per cell basis versus control culture grown in butyrate” value ([1]; 31° C., all cultures grown in decitabine) was “comparable to, and in some cases greater than”. For the same compound, the “IL-1R-II produced in 10 μM versus 15 μM or 20 μM decitabine” value ([1]; 32° C.) was “produced more IL-1R-II”, the “IL1R-II Titer” value ([1]; 32° C., 10 μM decitabine, day 0) was 0.0 µg/mL and the “IL1R-II Titer” value [1, 20] was 186.0 µg/mL. The Productivity [1, 20] was 23.1 pg IL-1R-II/cell/day, the “IL1R-II Titer” value [1, 21] was 407.0 µg/mL and the Productivity [1, 21] was 21.5 pg IL-1R-II/cell/day. The “IL1R-II Titer” value [1, 22] was 610.5 µg/mL, the Productivity [1, 22] was 24.5 pg IL-1R-II/cell/day and the “IL1R-II Titer” value ([1]; 32° C., 15 μM decitabine, day 0) was 0.0 µg/mL. The “IL1R-II Titer” value [1, 23] was 189.0 µg/mL, the Productivity [1, 23] was 23.5 pg IL-1R-II/cell/day and the “IL1R-II Titer” value [1, 24] was 410.0 µg/mL. For the same compound, the Productivity [1, 24] was 22.5 pg IL-1R-II/cell/day, the “IL1R-II Titer” value ([1]; 32° C., 15 μM decitabine, day 8) was 478.0 µg/mL and the “IL1R-II Titer” value ([1]; 32° C., 20 μM decitabine, day 0) was 0.0 µg/mL. For the same compound, the “IL1R-II Titer” value [1, 25] was 184.5 µg/mL, the Productivity [1, 25] was 22.2 pg IL-1R-II/cell/day and the “IL1R-II Titer” value [1, 26] was 492.0 µg/mL. The Productivity [1, 26] was 26.3 pg IL-1R-II/cell/day, the “IL1R-II Titer” value [1, 27] was 488.5 µg/mL and the Productivity [1, 27] was 20.7 pg IL-1R-II/cell/day. The Viable Cell Density ([2]; day 0) was 2.4 cells/ml × 10^6, the Viable Cell Density ([2]; day 2) was 2.4 cells/ml × 10^6 and the Viable Cell Density ([2]; day 5) was 1.8 cells/ml × 10^6. For the same compound, the Viable Cell Density ([2]; day 7) was 1.1 cells/ml × 10^6 and the Viable Cell Density ([2]; day 9) was 0.9 cells/ml × 10^6.
